Test results published in patent US7507730B2, “Substituted pyrazolo[1,5-a]pyrimidines as potassium channel activators” (Bristol-Myers Squibb Company, priority 2005, dated 2009).
pIC50: −log10 of the molar value.

These compounds were tested against Kv1.5 (Homo sapiens, UniProt P22460) (assay: Kv1.5 inhibition assay (IKur inhibitor assay per cited references)). Conditions: at 0.3 μM.
Assay type: cell-based
Text: Assays to determine the degree of activity of a compound as an IKur inhibitor are well known in the art and are described in references such as J. Gen. Physiol. Apr.; 101 (4):513-43, and Br. J. Pharmacol. 1995 May; 115(2):267-74.

Kv1.5, sequence (P22460 whole entry): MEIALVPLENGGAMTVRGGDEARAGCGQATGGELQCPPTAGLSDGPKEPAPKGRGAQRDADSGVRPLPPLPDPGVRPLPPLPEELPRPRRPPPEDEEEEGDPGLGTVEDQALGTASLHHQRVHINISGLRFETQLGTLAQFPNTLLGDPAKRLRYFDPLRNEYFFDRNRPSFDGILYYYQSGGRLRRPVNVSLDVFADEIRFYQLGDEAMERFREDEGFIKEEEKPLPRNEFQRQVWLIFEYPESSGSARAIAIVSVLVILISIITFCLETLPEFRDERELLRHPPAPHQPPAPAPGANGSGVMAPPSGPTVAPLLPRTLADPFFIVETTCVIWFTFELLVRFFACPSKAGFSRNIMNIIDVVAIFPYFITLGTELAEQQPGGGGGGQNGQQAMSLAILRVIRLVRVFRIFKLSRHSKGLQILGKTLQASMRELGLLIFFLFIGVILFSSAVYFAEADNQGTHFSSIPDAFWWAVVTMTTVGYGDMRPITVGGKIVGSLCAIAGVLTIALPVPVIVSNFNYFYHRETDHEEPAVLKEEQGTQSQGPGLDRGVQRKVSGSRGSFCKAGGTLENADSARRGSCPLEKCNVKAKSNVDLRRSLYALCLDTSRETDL

Compound | inhibition at 0.3 µM [%]
CC1=C(S(=O)(=O)c2ccccc2)C(c2ccc3c(c2)OCO3)n2nc(C)cc2N1 (racemic) [Example 6, 7-(Benzo[d][1,3]dioxol-5-yl)-2,5-dimethyl-6-(phenylsulfonyl)-4,7-dihydropyrazolo[1,5-a]pyrimidine] | 6.1
CC1=C(S(=O)(=O)C(C)C)C(c2ccc(Cl)c(Cl)c2)n2nc(C)cc2N1 (racemic) [Example 13, 7-(3,4-Dichlorophenyl)-6-(isopropylsulfonyl)-2,5-dimethyl-4,7-dihydropyrazolo[1,5-a]pyrimidine] | 15.4
CC1=C(S(=O)(=O)Cc2ccccc2)C(c2ccc(Cl)c(Cl)c2)n2nc(C)cc2N1 (racemic) [Example 14, 6-(Benzylsulfonyl)-7-(3,4-dichlorophenyl)-2,5-dimethyl-4,7-dihydropyrazolo[1,5-a]pyrimidine] | 50.4
Cc1cc2nc(C)c(S(=O)(=O)Cc3ccccc3)c(-c3ccc(Cl)c(Cl)c3)n2n1 (racemic) [Example 15, 6-(Benzylsulfonyl)-7-(3,4-dichlorophenyl)-2,5-dimethylpyrazolo[1,5-a]pyrimidine] | 8.5
CC1=C(S(=O)(=O)Cc2ccccc2)C(c2ccc(Cl)c(Cl)c2)n2nc(C(F)(F)F)cc2N1 (racemic) [Example 16, 6-(Benzylsulfonyl)-7-(3,4-dichlorophenyl)-5-methyl-2-(trifluoromethyl)-4,7-dihydropyrazolo[1,5-a]pyrimidine] | 37.2
CC1=C(S(=O)(=O)c2ccccc2)C(c2ccc(Cl)s2)n2nc(C(F)(F)F)cc2N1 (racemic) [Example 20, 7-(5-Chlorothiophen-2-yl)-5-methyl-6-(phenylsulfonyl)-2-(trifluoromethyl)-4,7-dihydropyrazolo[1,5-a]pyrimidine] | 7.8
CC1=C(S(=O)(=O)c2ccccc2)C(c2ccc(N3CCCC3)cc2)n2nc(C(F)(F)F)cc2N1 (racemic) [Example 21, 5-Methyl-6-(phenylsulfonyl)-7-(4-(pyrrolidin-1-yl)phenyl)-2-(trifluoromethyl)-4,7-dihydropyrazolo[1,5-a]pyrimidine] | 11.1
CC1=C(S(=O)(=O)c2ccccc2)C(c2ccc(F)c(C)c2)n2nc(C(F)(F)F)cc2N1 (racemic) [Example 22, 7-(4-Fluoro-3-methylphenyl)-5-methyl-6-(phenylsulfonyl)-2-(trifluoromethyl)-4,7-dihydropyrazolo[1,5-a]pyrimidine] | 30.7
CC1=C(S(=O)(=O)c2ccc(Cl)cc2)C(c2ccc(C)cc2)n2nc(C(F)(F)F)cc2N1 (racemic) [Example 34, 6-(4-Chlorophenylsulfonyl)-5-methyl-7-p-tolyl-2-(trifluoromethyl)-4,7-dihydropyrazolo[1,5-a]pyrimidine] | 37.6
COc1ccc(NS(=O)(=O)C2=C(C)Nc3cc(C)nn3C2c2ccc(Cl)c(Cl)c2)cc1 (racemic) [Example 37, 7-(3,4-Dichlorophenyl)-N-(4-methoxyphenyl)-2,5-dimethyl-4,7-dihydropyrazolo[1,5-a]pyrimidine-6-sulfonamide] | 25
COc1ccc(S(=O)(=O)C2=C(CO)Nc3cc(C(F)(F)F)nn3C2c2ccc(Cl)c(Cl)c2)cc1 (racemic) [Example 48, (7-(3,4-Dichlorophenyl)-6-(4-methoxyphenylsulfonyl)-2-(trifluoromethyl)-4,7-dihydropyrazolo[1,5-a]pyrimidin-5-yl)methanol] | 15
CC1=C(S(=O)(=O)NC2CCCCC2)C(c2ccc(Cl)cc2)n2nc(C(F)(F)F)cc2N1 (racemic) [Example 52, 7-(4-Chlorophenyl)-N-cyclohexyl-5-methyl-2-(trifluoromethyl)-4,7-dihydropyrazolo[1,5-a]pyrimidine-6-sulfonamide] | 49.6
CC1=C(S(=O)(=O)NCc2ccccc2)C(c2ccc(Cl)cc2)n2nc(C(F)(F)F)cc2N1 (racemic) [Example 54, N-Benzyl-7-(4-chlorophenyl)-5-methyl-2-(trifluoromethyl)-4,7-dihydropyrazolo[1,5-a]pyrimidine-6-sulfonamide] | 27.7
CC1=C(S(=O)(=O)NC(C)(C)C)C(c2ccc(Cl)cc2)n2nc(C(F)(F)F)cc2N1 (racemic) [Example 57, N-tert-Butyl-7-(4-chlorophenyl)-5-methyl-2-(trifluoromethyl)-4,7-dihydropyrazolo[1,5-a]pyrimidine-6-sulfonamide] | 34.1
CC1=C(S(=O)(=O)N(C)c2ccccc2)C(c2ccc(Cl)c(Cl)c2)n2nc(C)cc2N1 (racemic) [Example 60, 7-(3,4-Dichlorophenyl)-N,2,5-trimethyl-N-phenyl-4,7-dihydropyrazolo[1,5-a]pyrimidine-6-sulfonamide] | 83.2
Cc1nc2cc(C(F)(F)F)nn2c(-c2ccc(Cl)c(Cl)c2)c1S(=O)(=O)N(C)c1ccccc1 (racemic) [Example 62, 7-(3,4-Dichlorophenyl)-N,5-dimethyl-N-phenyl-2-(trifluoromethyl)pyrazolo[1,5-a]pyrimidine-6-sulfonamide] | 12
CC1=C(S(=O)(=O)N2CCCC2)C(c2ccc(Cl)c(Cl)c2)n2nc(C)nc2N1 (racemic) [Example 68, 7-(3,4-Dichlorophenyl)-2,5-dimethyl-6-(pyrrolidin-1-ylsulfonyl)-4,7-dihydro-[1,2,4]triazolo[1,5-a]pyrimidine] | 7
CC1=C(S(=O)(=O)N2CCN(c3ccccc3)CC2)C(c2ccc(Cl)c(Cl)c2)n2nc(C(F)(F)F)cc2N1 (racemic) [Example 70, 7-(3,4-Dichlorophenyl)-5-methyl-6-(4-phenylpiperazin-1-ylsulfonyl)-2-(trifluoromethyl)-4,7-dihydropyrazolo[1,5-a]pyrimidine] | 26
CC1=C(S(=O)(=O)N2CCCC2)C(c2cc3ccccc3n2C)n2nc(C(F)(F)F)cc2N1 (racemic) [Example 71, 5-Methyl-7-(1-methyl-1H-indol-2-yl)-6-(pyrrolidin-1-ylsulfonyl)-2-(trifluoromethyl)-4,7-dihydropyrazolo[1,5-a]pyrimidine] | 41
CC1=C(S(=O)(=O)c2ccc(Cl)cc2)C(c2cc3ccccc3n2C)n2nc(C(F)(F)F)cc2N1 (racemic) [Example 72, 6-(4-Chlorophenylsulfonyl)-5-methyl-7-(1-methyl-1H-indol-2-yl)-2-(trifluoromethyl)-4,7-dihydropyrazolo[1,5-a]pyrimidine] | 34
COc1ccc(S(=O)(=O)N(C)C(=O)C2=C(C)Nc3ccnn3C2c2ccc(Cl)c(Cl)c2)cc1 (racemic) [Example 73, 7-(3,4-Dichlorophenyl)-N-(4-methoxyphenylsulfonyl)-N,5-dimethyl-4,7-dihydropyrazolo[1,5-a]pyrimidine-6-carboxamide] | 86
CC1=C(C(=O)N(C)S(=O)(=O)c2ccccc2)C(c2ccc(Cl)c(Cl)c2)n2nccc2N1 (racemic) [Example 74, 7-(3,4-Dichlorophenyl)-N,5-dimethyl-N-(phenylsulfonyl)-4,7-dihydropyrazolo[1,5-a]pyrimidine-6-carboxamide] | 79
CC1=C(C(=O)N(C)S(=O)(=O)c2ccc(Cl)cc2)C(c2ccc(Cl)c(Cl)c2)n2nccc2N1 (racemic) [Example 75, N-(4-Chlorophenylsulfonyl)-7-(3,4-dichlorophenyl)-N,5-dimethyl-4,7-dihydropyrazolo[1,5-a]pyrimidine-6-carboxamide] | 89
CC1=C(C(=O)N(C)S(=O)(=O)c2ccc3ccc(Cl)cc3c2)C(c2ccc(Cl)c(Cl)c2)n2nccc2N1 (racemic) [Example 76, N-(7-Chloronaphthalen-2-ylsulfonyl)-7-(3,4-dichlorophenyl)-N,5-dimethyl-4,7-dihydropyrazolo[1,5-a]pyrimidine-6-carboxamide] | 38
CC1=C(C(=O)N(C)S(=O)(=O)c2ccc(F)cc2)C(c2ccc(Cl)c(Cl)c2)n2nc(C(F)(F)F)cc2N1 (racemic) [Example 82, 7-(3,4-Dichlorophenyl)-N-(4-fluorophenylsulfonyl)-N,5-dimethyl-2-(trifluoromethyl)-4,7-dihydropyrazolo[1,5-a]pyrimidine-6-carboxamide] | 7
CC1=C(C(=O)N2CCN(C)S2(=O)=O)C(c2ccc(Cl)c(Cl)c2)n2nc(C)cc2N1 (racemic) [Example 83] | 40
CCCCS(=O)(=O)NC(=O)C1=C(C)Nc2cc(C(F)(F)F)nn2C1c1ccc(Cl)c(Cl)c1 (racemic) [Example 85, N-(Butylsulfonyl)-7-(3,4-dichlorophenyl)-5-methyl-2-(trifluoromethyl)-4,7-dihydropyrazolo[1,5-a]pyrimidine-6-carboxamide] | 11

Same assay, conditions: given as % inhibition, value given as a concentration in μM; read-out: Kv1.5% inhibition

Compound | IC50 [µM]
COc1ccc(S(=O)(=O)N(C)C(=O)C2=C(C)Nc3cc(C)nn3C2c2ccc(Cl)c(Cl)c2)cc1 (racemic) [Example 77, 7-(3,4-Dichlorophenyl)-N-(4-methoxyphenylsulfonyl)-N,2,5-trimethyl-4,7-dihydropyrazolo[1,5-a]pyrimidine-6-carboxamide] | 0.172
CC1=C(C(=O)N(C)S(=O)(=O)c2ccccc2)C(c2ccc(Cl)c(Cl)c2)n2nc(C)cc2N1 (racemic) [Example 78, 7-(3,4-Dichlorophenyl)-N,2,5-trimethyl-N-(phenylsulfonyl)-4,7-dihydropyrazolo[1,5-a]pyrimidine-6-carboxamide] | 0.164

Same assay, conditions: read-out: Kv1.5 IC50

Compound | pIC50
CCCCS(=O)(=O)N(C)C(=O)C1=C(C)Nc2cc(C(F)(F)F)nn2C1c1ccc(Cl)c(Cl)c1 (racemic) [Example 86, N-(Butylsulfonyl)-7-(3,4-dichlorophenyl)-N,5-dimethyl-2-(trifluoromethyl)-4,7-dihydropyrazolo[1,5-a]pyrimidine-6-carboxamide] | 6.62
CC1=C(C(=O)N(C)S(=O)(=O)C(C)C)C(c2ccc(Cl)c(Cl)c2)n2nc(C(F)(F)F)cc2N1 (racemic) [Example 87, 7-(3,4-Dichlorophenyl)-N-(isopropylsulfonyl)-N,5-dimethyl-2-(trifluoromethyl)-4,7-dihydropyrazolo[1,5-a]pyrimidine-6-carboxamide] | 6.59
